According to PubChem BioAssay (NCI):
Values joined by “and” are separate entries in the source; they are usually repeats but may differ in a detail not shown here. Equal entries are not always repeated.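 Protocol summary: plate cells (96-well), add compound at 5 concentrations, incubate 48 h, interpolate endpoints linearly. GI50 = concentration required for 50% inhibition of growth. TGI is the concentration that stops growth completely.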

Columns and labels:
Test in all cases: inhibition of tumour cell growth, NCI panel, 48 h
EKVX NSCLC = test system: EKVX NSCLC
MOLT-4 leukemia = test system: MOLT-4 leukemia
OVCAR-8 ovarian = test system: OVCAR-8 ovarian
SF-268 CNS = test system: SF-268 CNS
SF-295 CNS = test system: SF-295 CNS
SK-MEL-28 melanoma = test system: SK-MEL-28 melanoma
SNB-19 CNS = test system: SNB-19 CNS
UO-31 renal = test system: UO-31 renal
NCI/ADR-RES ovarian = test system: NCI/ADR-RES ovarian
NCI-H460 lung = test system: NCI-H460 lung

Row | Compound | TGI (EKVX NSCLC) [µM] | TGI (MOLT-4 leukemia) | TGI (OVCAR-8 ovarian) | TGI (SF-268 CNS) | TGI (SF-295 CNS) | TGI (SK-MEL-28 melanoma) | TGI (SNB-19 CNS) | TGI (UO-31 renal) | GI50 (EKVX NSCLC) [µM] | GI50 (NCI/ADR-RES ovarian) | TGI (NCI/ADR-RES ovarian) | GI50 (OVCAR-8 ovarian) | GI50 (SF-268 CNS) | GI50 (SF-295 CNS) | GI50 (SK-MEL-28 melanoma) | GI50 (SNB-19 CNS) | GI50 (UO-31 renal) | TGI (NCI-H460 lung) [µM] | GI50 (MOLT-4 leukemia) | GI50 (NCI-H460 lung)
1 | COC12CCC(C(C(=O)c3ccccc3)=C1C(=O)c1ccccc1)C(O)C2 (configuration not stated) | > 100 | > 100 µM | > 100 µM | > 100 µM | > 100 µM | > 100 µM | > 100 µM | > 100 µM |  |  |  |  |  |  |  |  |  |  |  | 
2 | COc1cc(/C=C\c2ccc(Br)cc2)cc(OC)c1OC | > 100 | 0.326 µM |  | 54 µM |  |  | > 100 µM |  |  |  |  |  |  |  |  |  |  |  |  | 
3 | Cc1cc(N(CCCNc2ccnc3cc(Cl)ccc23)Cc2ccc3c(c2)OCO3)nc(N2CCCCC2)n1 | 38 |  | 4.95 µM | 6.21 µM | 3.39 µM | 3.66 µM | 15.1 µM | 2.82 µM | 2.56 | 2.43 µM | 8.03 µM | 2.1 µM | 2.33 µM | 1.59 µM | 1.94 µM | 3.47 µM | 1.25 µM |  |  | 
4 | CC(NC(=O)C(=O)N/N=C1\C[C@@H](c2ccccc2)Nc2ccccc21)c1ccccc1 (some centres not stated) | > 100 |  | > 100 µM | > 100 µM | > 100 µM | > 100 µM | > 100 µM | > 100 µM |  |  |  |  |  |  |  |  |  | > 100 |  | 
5 | O=C1C(=O)N(c2nccs2)C(=O)C(=O)C1c1nc2ccccc2s1 | > 100 |  | > 100 µM | > 100 µM | > 100 µM | > 100 µM | > 100 µM | > 100 µM |  |  |  |  |  |  |  |  |  | > 100 |  | 
6 | CN1C[C@@H]2Cn3c(c(C4=C(c5cn(C)c6ccccc56)C(=O)NC4=O)c4ccccc43)C[C@H]2C1 |  | 16.8 µM and 11.9 µM | 11.4 µM and 11.1 µM | 9.46 µM and 9.97 µM | 7.15 µM and 8.89 µM | 8.62 µM and 8.47 µM | 18.4 µM and 16.4 µM | 5.38 µM and 6.66 µM |  | 6.46 µM and 8.53 µM | 16.8 µM and 25 µM | 4.74 µM and 4.35 µM | 4.8 µM and 4.93 µM | 3.42 µM and 3.76 µM | 4.34 µM and 4.35 µM | 6.44 µM and 5.87 µM | 2.01 µM and 2.98 µM | 8.9 | 5.46 µM and 3.49 µM | 4.61 µM and 4.35 µM
7 | CC(C)C(=O)[O-].CC(C)C(=O)[O-].N.N.N.N.[Co+3].[O-][Cl+3]([O-])([O-])[O-] | > 100 | > 100 µM | > 100 µM | > 100 µM | > 100 µM | > 100 µM | > 100 µM | > 100 µM | > 100 |  |  | > 100 µM | > 100 µM | > 100 µM | > 100 µM | > 100 µM | > 100 µM | > 100 | > 100 µM | > 100 µM
8 | O=C(N/C(=C\c1ccc(/C=C(\NC(=O)c2ccccc2)c2nc3ccccc3s2)cc1)c1nc2ccccc2s1)c1ccccc1 | 14.5 | 26.7 µM | 5.51 µM | 21.1 µM | 16.1 µM | 24.2 µM | 14.5 µM | 10.7 µM |  |  |  |  |  |  |  |  |  | 14.6 |  | 
9 | Cc1ccc(Nc2cc(C)nc(NCCCNc3ccnc4cc(Cl)ccc34)n2)cc1 |  | 6.67 µM | 3.25 µM | 3.14 µM | 2.92 µM | 3.06 µM | 3.84 µM | 2.87 µM |  | 1.73 µM | 3.54 µM | 1.67 µM | 1.52 µM | 1.51 µM | 1.62 µM | 1.75 µM | 1.43 µM | 3.23 | 2.01 µM | 1.57 µM
10 | CC(=O)OC1CCC2C(=CCC3C2(C)C(=O)CC2(C)C(C4(C)OC(C(C)C)=CC4=O)C(O)CC32C)C1(C)C (configuration not stated) | > 100 | > 100 µM | > 100 µM | > 100 µM |  |  | > 100 µM | > 100 µM |  |  |  |  |  |  |  |  |  | 66.4 |  | 
11 | CC(C)CC12CC3CCC(CNC1=O)C32C (configuration not stated) | > 100 | > 100 µM | > 100 µM | > 100 µM | > 100 µM | > 100 µM | > 100 µM | > 100 µM |  |  |  |  |  |  |  |  |  | > 100 |  | 
12 | CC1(C(=O)O)CCOc2ccccc21 (configuration not stated) | > 100 | > 100 µM | > 100 µM | > 100 µM | > 100 µM | > 100 µM | > 100 µM | > 100 µM |  |  |  |  |  |  |  |  |  | > 100 |  | 
13 | CCOC(=O)c1ccc(N2C(=O)Cc3ccccc3C2=O)cc1 | > 100 | > 100 µM | > 100 µM | > 100 µM | > 100 µM | > 100 µM | > 100 µM | > 100 µM |  |  |  |  |  |  |  |  |  |  |  | 
14 | CS/C(c1ccccc1)=[N+](\[O-])Cc1ccccc1 | > 100 | > 100 µM | > 100 µM | > 100 µM | > 100 µM | > 100 µM | > 100 µM | > 100 µM |  |  |  |  |  |  |  |  |  | > 100 |  | 
15 | COc1cc(C2CC(=O)Nc3c2ccc2ccccc32)cc(Br)c1OC (configuration not stated) |  | 12.4 µM | > 51.1 µM | > 100 µM |  | > 100 µM | > 100 µM | > 34.5 µM |  | 0.279 µM | 1.13 µM | 0.772 µM | 0.933 µM | 0.316 µM | 0.805 µM | 11.7 µM | 2.24 µM | > 20.2 | 0.45 µM | 0.368 µM
16 | CCOC(=O)C(C(=O)OCC)C(=O)c1ccccc1C(=O)c1ccccc1 | 96.7 | 83.6 µM |  | > 100 µM | > 100 µM |  | > 100 µM | > 100 µM |  |  | > 100 µM |  |  |  |  |  |  | > 100 |  | 
17 | CCOC(=O)C1=C(Nc2ccc(Br)cc2)OC/C1=N\NC(=O)c1ccccc1O | > 93.9 | 35.2 µM | > 100 µM | > 100 µM | > 100 µM | > 100 µM | > 100 µM | > 50.9 µM |  |  |  |  |  |  |  |  |  | > 100 |  | 
18 | CCCCn1c2ccccc2c2ccc3c(c21)C(=O)C=CC3=O |  | > 100 µM | > 100 µM | > 100 µM | > 100 µM | > 100 µM | > 100 µM | > 100 µM |  |  |  |  |  |  |  |  |  | > 100 |  | 
19 | O=c1cccccc1[O-].O=c1cccccc1[O-].O=c1cccccc1[O-].[Ce+3] | > 100 | > 100 µM | 73.6 µM |  | 78.1 µM |  | > 100 µM | 84.6 µM |  |  |  |  |  |  |  |  |  | > 100 |  | 
20 | Cc1ccc(C2=C(c3ccc(C)cc3)C(c3ccc(C)cc3)=C(c3ccc(C)cc3)C2=O)cc1 | > 100 | > 100 µM | > 100 µM | > 100 µM | > 100 µM | > 100 µM | > 100 µM | > 100 µM |  |  |  |  |  |  |  |  |  | > 100 |  | 
